Measured values reported in US10196601B2, “Cell culture medium and process for controlling α-amidation and/or C-terminal amino acid cleavage of polypeptides” (LEK PHARMACEUTICALS D.D., priority 2013, dated 2019).
Where two headings read alike, the source gives them in different places.

Key:
CP enzyme [1] = assay: amount of C-terminal Lys of the expressed antibody (in vivo CP activity), SF system; assay type: cell-based, Chinese hamster
Procedure: (§1) Experiments (using different illustrative glycoproteins) were performed in shake flask (SF) systems, where […] SFs with a final volume of 125 ml were used. All experiments started by thawing of a research working cell bank (rWCB), such as CHO cell line DP-12 (CHO DP-12 clone #1934 [CHO DP-12, clone #1934 aIL8.92 NB 28605/14] (ATCC® CRL-12445™) producing recombinant human anti-IL-8 or CHO-SSF cells expressing a monoclonal antibody directed to tumour necrosis factor, TNF (see PCT/EP2011/074181 for further details) followed by several subcultivations under standard conditions according to manufacture instructions until enough cells for the inoculation were available For all experiments, a 14 days generic fed batch fermentation was used and a generic feeding regime comprising feeding of glucose, glutamine and amino acids was performed. All SFs were incubated in a shaker incubator (Kuhner, Switzerland) at the following conditions: temperature of 36.5° C., CO2=10% and shaking speed 200 rpm.
(§2) At the end of 14 days of BR and SF bioprocesses (i.e., on day 14), harvests were sampled to 50 ml centrifuge tubes. […] Purification was done either using AKTA chromatography system with 1 ml HiTrap column (GE Healthcare, cat. no. 11-0034-93) or TECAN Freedom EVO pipetting station with 200 μl RoboColumns (Atoll, cat. no. 01050408R).
(§3) To measure the amount of C-terminal α-amidated Pro and the amount of C-terminal Lys, Cation Exchange Chromatography (CEX) was performed according to the laboratory procedure. Main charged variants were designated as 0K, pseudo 1K (1+) and pseudo 2K (2+). The positive charge refers to the Lys or α-amidated Pro at the C-terminus of the heavy chain. Charged variants (Lys, α-amidated Pro) were differentiated by CP cleavage of C-terminal Lys followed by the same CEX analysis. Structures eluting before the main three variants were designated as AP (acidic peaks) and those eluting after them as BP (basic peaks).
(§4) The experiment was performed in 500 ml SF with a final volume of 125 ml. After 14 days of fed batch bioprocess, harvests were collected, centrifuged, sterile filtered through a PES membrane and immediately subjected to a single step affinity chromatography (AC) purification and a subsequent analysis of C-terminal α-amidation by […]. Design Expert version 7.1.3 (Stat-Ease, Inc., Minneapolis, USA) was used to build the response surface design and to perform the statistical analysis of the experimental results. A MinRes IV design was used to determine the influence of the tested trace elements on cell productivity, C-terminal α-amidation and C-terminal carboxypeptidation of the investigated monoclonal antibody. Analyzed design expert (Stat-Ease, Inc., Minneapolis, USA) responses included end of fed-batch titer, amount of C-terminal α-amidated Pro and amount of C-terminal Lys.
(§5) The experiment was performed in 500 ml SF with a final volume of 125 ml. After 14 days of fed batch bioprocess, harvests were collected, centrifuged, sterile filtered through a PES membrane and immediately subjected to a single step AC purification and a subsequent analysis of C-terminal α-amidation by […].
(§6) After performing the above described analytical steps, the measured values were inserted into the DOE program and analyzed. The α-value of statistical significance was set to 0.100, which means that factors with a P-value higher than 0.100 were excluded from the statistical mode since they were non-significant.

CP enzyme [2] = assay: amount of C-terminal Lys (in vivo CP activity), BR system; assay type: cell-based, Chinese hamster; conditions: 5 L BR
Procedure: as §2, §3
(§7) All experiments were performed in 5 L BRs.
To test the effect of zinc on the CP activity, three different zinc chloride concentrations were tested, namely 3.7 μM, 11 μM and 22 μM. […] In regard to productivity, a constant drop of productivity was measured with the decrease of the zinc concentration.

[3] = test system: CHO cells expressing a monoclonal antibody; assay: titer in 5 L bioreactor (BR) fed batch culture; assay type: cell-based, Chinese hamster; conditions: 5 L BR
Procedure: as §7

CHO cells [4] = conditions: 5 L BR
Procedure: All results were finally confirmed in a bioreactor (BR) system, where 5 L glass bioreactors were used.
In both the SF and BR system, the cell growth and cell viability were measured with the Vi-Cell XR analyzer (Beckman Coulter) using the trypan blue exclusion method for cell viability determination and automated cell counting for determination of the cell concentration. The monoclonal antibody content was determined by affinity liquid chromatography (ALC). A calibration curve was made by diluting the generic reference. […] The results were expressed in gram (g) of protein per liter (L) of harvest.
The obtained SF results were finally also tested in a bioreactor (BR) environment. All experiments were performed in 5 L BRs.

[5] = test system: CHO cells expressing a monoclonal antibody; assay: end of fed-batch titer in shake flask (SF) fed batch culture; assay type: cell-based, Chinese hamster
Procedure: as §1, §4
Effects that were above the Bonferroni limit were certainly significant and effects that were above the t-Value limit were possibly significant. Effects that were below the t-Value limit were not selected as they were not significant. After selecting significant effects, the ANOVA statistical program was employed to confirm that only statistically significant effects were included in the model.
as §5, §6

PAM enzyme [6] = assay: amount of C-terminal α-amidated Pro of the expressed antibody (in vivo PAM activity), SF system; assay type: cell-based, Chinese hamster
Procedure: as §1, §2, §3, §4, §5, §6

PAM enzyme [7] = assay: amount of C-terminal α-amidated Pro (in vivo PAM activity), BR system; assay type: cell-based, Chinese hamster; conditions: 5 L BR
Procedure: as §2, §3, §7

CHO cells [8] = assay: cell viability in SF culture (trypan blue exclusion); assay type: cell-based, Chinese hamster; conditions: experiment 2, SF; selenium 3 μM (data not shown)
Procedure: Experiments (using different illustrative glycoproteins) were performed in shake flask (SF) systems, where […] SFs with a final volume of 125 ml were used.
as §5

[Cl-].[Cl-].[Zn+2] [zinc, zinc chloride] was tested, and the “amount of C-terminal Lys” value (CP enzyme [1]; confirmation, SF, three parallels, 2.3 μM zinc (FIG. 10B)) was 15.97%±0.79%, the “amount of C-terminal Lys” value (CP enzyme [1]; confirmation, SF, three parallels, unchanged in-house medium, 22 μM zinc (FIG. 10B)) was 1.99%±0.08% and the “amount of C-terminal Lys” value (CP enzyme [1]; experiment 1, SF, 10-fold increased zinc (FIG. 6)) was 8.5%. The “amount of C-terminal Lys” value (CP enzyme [1]; experiment 1, SF, before 10-fold increase of zinc (FIG. 6)) was 22%, the “amount of C-terminal Lys” value (CP enzyme [1]; experiment 2, DOE model, zinc 0.15 μM (FIG. 9)) was 15% and the “amount of C-terminal Lys” value (CP enzyme [1]; experiment 2, DOE model, zinc 5.00 μM (FIG. 9)) was 5%. For the same compound, the “C-terminal Lys” value (CP enzyme [2]; 3.7 μM zinc (FIG. 14)) was 6%, the “C-terminal Lys” value (CP enzyme [2]; 22 μM zinc (FIG. 14)) was 3.15% and the final titer ([3]; highest zinc concentration, 22 μM (FIG. 13B)) was 3.86 g/L. The final titer ([3]; lowest zinc concentration, 3.7 μM (FIG. 13B)) was 1.86 g/L, the final titer ([3]; zinc 11 μM (FIG. 13B)) was 2.90 g/L and the cell culture growth (CHO cells [4]; 3.7 μM zinc (FIG. 13A)) was “significantly lower growth”. The cell culture growth (CHO cells [4]; 11 μM compared with 22 μM zinc (FIG. 13A)) was “well comparable”, the titer ([5]; experiment 1 (MinRes IV), SF, 14 days fed batch, zinc 2.201 μM) was 0.4 g/L and the titer ([5]; experiment 1, SF, zinc 22.012 μM) was 0.6 g/L. The titer ([5]; experiment 2 (central composite design), DOE model, zinc 7 μM (FIG. 7)) was 0.4 g/L and the titer ([5]; experiment 2, DOE model, zinc 12 μM (FIG. 7)) was “above 0.6 g/L”.
[Cl][Cu][Cl] [copper, copper chloride] was tested, and the “increase of amount of C-terminal α-amidated Pro” value (PAM enzyme [6]; experiment 1, SF, 10-fold increased copper (FIG. 4)) was 2.5%, the “amount of C-terminal α-amidated Pro” value (PAM enzyme [6]; experiment 2, DOE model, copper 0.06 μM) was 2.1% and the “amount of C-terminal α-amidated Pro” value (PAM enzyme [6]; experiment 2, DOE model, copper 0.18 μM) was 2.2%.
With O=[Se]([O-])[O-].[Na+].[Na+] [selenium, sodium selenite] the “amount of C-terminal α-amidated Pro” value (PAM enzyme [6]; experiment 1, SF, 10-fold increased selenium (FIG. 4)) was 4.5%, the “amount of C-terminal α-amidated Pro” value (PAM enzyme [6]; experiment 1, SF, before 10-fold increase of selenium (FIG. 4)) was 6.5% and the “amount of C-terminal α-amidated Pro” value (PAM enzyme [6]; experiment 2, selenium 0.17 μM (FIG. 8)) was 2.2%. The “amount of C-terminal α-amidated Pro” value (PAM enzyme [6]; experiment 2, selenium 3.00 μM (FIG. 8)) was 1.26%, the “C-terminal α-amidated Pro” value (PAM enzyme [7]; 0.17 μM selenium (FIG. 12)) was 9.3% and the “C-terminal α-amidated Pro” value (PAM enzyme [7]; 2.31 μM selenium (FIG. 12)) was 2.25%. The viability (CHO cells [8]) was “below 80%”, the titer decrease ([3]; 2.31 μM versus 0.17 μM selenium (FIG. 11B)) was 1 g/L and the titer ([5]; experiment 1, SF, selenium 0.017 μM) was 0.4 g/L. For the same compound, the effect on titer ([5]; experiment 2, SF, selenium above 3 μM (FIG. 7)) was “titer decrease”.
